# According to US5122514A, “Psoriasis treatment” (Abbott Laboratories, priority 1991, dated 1992):
# Counter-ions that a name gives are not always drawn.
# System: psoriatic lesions on the patient's elbow, face and scalp
# Test: Grading of psoriatic lesions in a patient after intravenous enalkiren
# Format: in vivo, human
# Set-up: key to Right Elbow Lesions lesion severity, lesion ranking: 0: Complete clearing; 1: Minimal severity; 2: Moderately severe; 3: Severe; 4: More severe; key to Right Elbow Lesions erythema, lesion ranking / Face Lesions erythema, lesion ranking / Scalp Lesions erythema, lesion ranking: 0: None; 1: Very Mild: light red/pink; 2: Moderate: red but still not dark in texture; 3: Strong: very red, possibly dark; 4: Extreme: angry red
# Protocol: A patient with documented psoriasis received 0.1 mg/kg of enalkiren (H-((beta,beta-dimethyl)-beta-Ala)-(4-OCH3)Phe-His amide of 2(S)-amino-1cyclohexyl-3(R), 4(S)-dihydroxy-6-methylheptane diacetic acid salt)(enalkiren 5.0 mg/5 ml (0.1% concentration), glacial acetic acid 0.91 mg/5ml and sodium chloride 43.9 mg/5 ml in water for injection) intravenously over a 5 minute period, followed 40 minutes later by administration of an additional 0.3 mg/kg of enalkiren intravenously over a 5 minute period. The psoriatic lesions on the patient's elbow, face and scalp were graded prior to treatment and 2, 4 and 7 days following treatment.
# [1] = +2 Days after 0.1 mg/kg then 0.3 mg/kg intravenously
# [2] = +4 Days after 0.1 mg/kg then 0.3 mg/kg intravenously
# [3] = +7 Days after 0.1 mg/kg then 0.3 mg/kg intravenously
# [4] = Treatment Day (graded prior to treatment), person with psoriasis
smiles,measurement,setting,value
"COc1ccc(C[C@H](NC(=O)CC(C)(C)N)C(=O)N[C@@H](Cc2cnc[nH]2)C(=O)N[C@@H](CC2CCCCC2)[C@@H](O)[C@@H](O)CC(C)C)cc1 [Enalkiren, H-((beta,beta-dimethyl)-beta-Ala)-(4-OCH3)Phe-His amide of 2(S)-amino-1cyclohexyl-3(R), 4(S)-dihydroxy-6-methylheptane diacetic acid salt]","Face Lesions erythema, lesion ranking",[1],3
same,"Right Elbow Lesions erythema, lesion ranking",[1],4
same,"Right Elbow Lesions lesion severity, lesion ranking",[1],4
same,"Scalp Lesions erythema, lesion ranking",[1],4
same,"Face Lesions erythema, lesion ranking",[2],2
same,"Right Elbow Lesions erythema, lesion ranking",[2],3
same,"Right Elbow Lesions lesion severity, lesion ranking",[2],3
same,"Scalp Lesions erythema, lesion ranking",[2],3
same,"Face Lesions erythema, lesion ranking",[3],2
same,"Right Elbow Lesions erythema, lesion ranking",[3],3
same,"Right Elbow Lesions lesion severity, lesion ranking",[3],3
same,"Scalp Lesions erythema, lesion ranking",[3],3
same,"Face Lesions erythema, lesion ranking",[4],3
same,"Right Elbow Lesions erythema, lesion ranking",[4],4
same,"Right Elbow Lesions lesion severity, lesion ranking",[4],4
same,"Scalp Lesions erythema, lesion ranking",[4],4
